Reference: patent US8541584B2, “3-(1,2,3-triazol-4-yl) pyrrolo [2,3-b] pyridine derivatives” (Merck Patent GmbH, priority 2009, dated 2013)

Experiments:
Format in all cases: biochemical
[1] = target: T1, PDK1 (Homo sapiens, UniProt O15530); experiment: Test for the inhibition of PDK1 (384-well flashplate, 33P-ATP); settings: His6-PDK1 3.4 nM, 4 μM ATP, 30° C., 60 min
T1 construct: His6 (N)
T1 sequence (O15530 51-556 limits assumed): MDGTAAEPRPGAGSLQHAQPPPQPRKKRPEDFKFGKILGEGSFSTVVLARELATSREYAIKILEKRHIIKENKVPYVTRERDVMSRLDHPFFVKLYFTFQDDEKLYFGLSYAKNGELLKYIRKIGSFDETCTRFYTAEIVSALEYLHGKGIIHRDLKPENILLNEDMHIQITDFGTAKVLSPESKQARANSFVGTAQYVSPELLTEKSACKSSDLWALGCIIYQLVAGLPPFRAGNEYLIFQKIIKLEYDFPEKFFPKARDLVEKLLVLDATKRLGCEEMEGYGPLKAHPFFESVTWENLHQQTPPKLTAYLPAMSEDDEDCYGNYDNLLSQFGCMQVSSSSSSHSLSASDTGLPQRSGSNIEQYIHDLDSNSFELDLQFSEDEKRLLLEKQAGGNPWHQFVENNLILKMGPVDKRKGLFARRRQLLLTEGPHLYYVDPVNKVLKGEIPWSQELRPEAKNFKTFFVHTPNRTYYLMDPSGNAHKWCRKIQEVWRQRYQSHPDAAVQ
Method: 4.0 Test for the Inhibition of PDK1
The experimental batches are carried out in a flashplate system with 384 wells/microtitration plate.
In each case, the PDK1 sample His6-PDK1(1-50)(3.4 nM), the PDK1 substrate biotin-bA-bA-[…] (400 nM), 4 μM ATP (with 0.2 μCi of ^33P-ATP/well) and the test substance in 50 μl of conventional experimental solution per well are incubated at 30° C. for 60 min. The test substances are employed in corresponding concentrations (if desired in a dilution series). The control is carried out without test substance. The reaction is stopped using standard methods and washed. The activity of the kinase is measured via the incorporated radioactivity in top count. In order to determine the non-specific kinase reaction (blank value), the experimental batches are carried out in the presence of 100 nM staurosporin.
The radioactivity (decompositions per minute) of the blank value (no use of test substance in the presence of staurosporin) is subtracted from all other radioactivity values. The controls (kinase activity without test substance) are set equal to 100 percent and all other radioactivity values (after subtracting the blank value) are expressed set in relation thereto (for example in % of the control).
IC50 values (50% inhibition) are determined with the aid of statistics programmes, such as, for example, RS1.

[2] = target: T2, IKKε (Homo sapiens, UniProt Q14164); experiment: IKKε kinase test (384-well flashplate); settings: 1 nM IKKε, 10 μM ATP, 30° C., 120 min; read-out: IC50 [IKKepsilon]
T2 sequence (Q14164 1-716): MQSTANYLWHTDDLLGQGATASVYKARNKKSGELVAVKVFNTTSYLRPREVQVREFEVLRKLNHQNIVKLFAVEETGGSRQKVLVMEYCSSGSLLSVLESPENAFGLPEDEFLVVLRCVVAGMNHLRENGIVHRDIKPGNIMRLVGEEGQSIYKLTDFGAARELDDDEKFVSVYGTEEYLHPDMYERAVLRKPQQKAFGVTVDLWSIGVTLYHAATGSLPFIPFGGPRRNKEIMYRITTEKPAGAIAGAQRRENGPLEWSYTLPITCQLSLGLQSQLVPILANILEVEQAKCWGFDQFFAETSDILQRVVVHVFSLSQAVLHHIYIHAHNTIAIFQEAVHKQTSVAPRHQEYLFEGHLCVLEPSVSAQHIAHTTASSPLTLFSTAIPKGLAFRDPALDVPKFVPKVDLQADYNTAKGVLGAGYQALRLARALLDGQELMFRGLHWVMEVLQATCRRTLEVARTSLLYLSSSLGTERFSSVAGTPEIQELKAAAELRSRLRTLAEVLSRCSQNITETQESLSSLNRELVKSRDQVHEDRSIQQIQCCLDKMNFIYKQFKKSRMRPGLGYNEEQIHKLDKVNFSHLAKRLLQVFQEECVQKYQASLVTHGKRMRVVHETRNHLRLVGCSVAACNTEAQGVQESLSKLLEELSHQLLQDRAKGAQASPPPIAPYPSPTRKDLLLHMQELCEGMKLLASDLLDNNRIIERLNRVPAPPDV
Method: IKKε—Kinase Test (IKKepsilon)
The kinase assay is performed as 384-well flashplate assay.
1 nM IKKε, 800 nM biotinylated IκBα(19-42) peptide (biotin-C6-C6-[…]) and 10 μM ATP (with 0.3 μCi of ^33P-ATP/well) are incubated in a total volume of 50 μl (10 mM MOPS, 10 mM magnesium acetate, 0.1 mM EGTA, 1 mM dithiothreitol, 0.02% of Brij35, 0.1% of BSA, 0.1% of BioStab, pH 7.5) with or without test substance at 30° C. for 120 min. The reaction is stopped using 25 μl of 200 mM EDTA solution, filtered off with suction after 30 min at room temperature, and the wells are washed 3 times with 100 μl of 0.9% NaCl solution. The non-specific proportion of the kinase reaction (blank) is determined using 3 μM EMD 1126352 (BX-795). Radioactivity is measured in the Topcount. IC50 values are calculated using RS1.

[3] = target: T3, TANK binding kinase (TBK1) (Homo sapiens, UniProt Q9UHD2); experiment: TBK1 kinase test (384-well flashplate); settings: 0.6 nM TBK1, 10 μM ATP, 30° C., 120 min
T3 sequence (Q9UHD2 1-729): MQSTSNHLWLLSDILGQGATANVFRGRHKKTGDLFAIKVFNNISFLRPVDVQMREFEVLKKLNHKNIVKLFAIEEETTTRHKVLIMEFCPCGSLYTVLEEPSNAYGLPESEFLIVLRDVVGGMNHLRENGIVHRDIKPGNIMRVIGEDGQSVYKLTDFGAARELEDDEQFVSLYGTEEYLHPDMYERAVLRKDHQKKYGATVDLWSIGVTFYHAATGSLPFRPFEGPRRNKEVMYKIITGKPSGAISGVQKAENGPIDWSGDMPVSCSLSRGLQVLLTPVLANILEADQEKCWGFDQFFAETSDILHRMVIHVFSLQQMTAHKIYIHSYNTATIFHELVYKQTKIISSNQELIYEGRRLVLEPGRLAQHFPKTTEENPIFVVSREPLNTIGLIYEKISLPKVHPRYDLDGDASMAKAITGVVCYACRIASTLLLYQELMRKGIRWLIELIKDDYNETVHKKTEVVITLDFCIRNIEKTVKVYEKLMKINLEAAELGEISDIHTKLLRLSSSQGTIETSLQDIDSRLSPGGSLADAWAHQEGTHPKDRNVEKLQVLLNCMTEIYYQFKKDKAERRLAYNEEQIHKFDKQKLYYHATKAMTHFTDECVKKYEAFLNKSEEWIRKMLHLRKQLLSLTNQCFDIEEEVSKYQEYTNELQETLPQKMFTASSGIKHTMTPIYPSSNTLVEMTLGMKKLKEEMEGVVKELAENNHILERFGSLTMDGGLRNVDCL
Method: The kinase assay is performed as 384-well flashplate assay. 0.6 nM TANK binding kinase (TBK1), 800 nM biotinylated MELK-derived peptide (biotin-Ah-Ah-[…]) and 10 μM ATP (with 0.25 μCi of ^33P-ATP/well) are incubated in a total volume of 50 μl (10 mM MOPS, 10 mM magnesium acetate, 0.1 mM EGTA, 1 mM DTT, 0.02% of Brij35, 0.1% of BSA, pH 7.5) with or without test substance at 30° C. for 120 min. The reaction is stopped using 25 μl of 200 mM EDTA solution, filtered off with suction after 30 min at room temperature, and the wells are washed 3 times with 100 μl of 0.9% NaCl solution. The non-specific proportion of the kinase reaction (blank) is determined using 100 nM staurosporine. Radioactivity is measured in the Topcount. IC50 values are calculated using RS1.

Measured: IC50

Cn1cc(-c2cnc3[nH]cc(-c4cn(CCc5ccccc5)nn4)c3c2)cn1 [Compound A16, 5-(1-Methyl-1H-pyrazol-4-yl)-3-(1-phenethyl-1H-1,2,3-triazol-4-yl)-1H-pyrrolo[2,3-b]-pyridine]
0.5 to 1000 nM: all assays above

Cn1cc(-c2cnc3[nH]cc(-c4cn(CCN5CCOCC5)nn4)c3c2)cn1 [Compound A18, 5-(1-Methyl-1H-pyrazol-4-yl)-3-[1-(2-morpholin-4-ylethyl)-1H-1,2,3-triazol-4-yl]-1H-pyrrolo[2,3-b]pyridine]
0.5 to 1000 nM: all assays above
